Measured values published in USRE29883E, “Antibacterial product” (Cosan Chemical Corporation, priority 1977, dated 1979).

Legend:
[1] = data available from Dow Chemical on Dowicil 100; cited from earlier work
[2] = data available from Dow Chemical on Dowicil 200; cited from earlier work
[3] = Acute Dermal LD50; conditions: in vivo, topical or ocular, standard, accepted protocols
Text: (§1) Both the acute oral LD50 and acute dermal LD50 tests were run in accordance with standard, accepted protocols.

[4] = Acute Oral LD50; conditions: in vivo, standard, accepted protocols
Text: as §1

[5] = test system: Pseudomonas aeruginosa; assay: antibacterial properties of latex paint inoculated with Pseudomonas aeruginosa (Example 4); conditions: 3.6 grams adduct in vinyl acrylic paint
Method: To a 1 gallon stainless steel beaker, equipped with a sheer type agitator, the following ingredients are charged in sequence:
This premix is then added to the above with agitation such that excessive air is not incorporated. To the above prepared combination is added 1,401 grams of a vinyl acrylic resin emulsion and mixed for a period of 10 minutes.
The resulting paint prepared above was examined for antibacterial properties by inoculating a portion with approximately 10^8 organisms per ml Pseudomonas aeruginosa. Paint samples returned to sterility within 24 hours of inoculation and maintained the same degree of preservation for periods in excess of 9 months, at which time the testing was discontinued.

[6] = thermal decomposition; type: physicochemical
[7] = test system: bacterial cultures; assay: microbial stability of oil-water hair dressing emulsion (Example 5); conditions: 0.2% adduct in oil-water hair dressing emulsion; after 6 months at 35° C
Method: The following is a formulation for an oil-water hair dressing emulsion: […]
Part A is heated to 75° C. and Part B is heated to 70° C. The test compound (Part C) is dissolved in Part B and the resulting solution added to Part A with good agitation. The mixture was perfumed 45° C. and agitated until cold.
The composition prepared above was tested for microbial stability for a period of 6 months and after 6 months at 35° C.

[8] = test system: gram positive and gram negative microorganisms; assay: antimicrobial spectrum, general statement
Text: The two-to-one quaternary ammonium adduct of this invention is particularly useful as an antimicrobial agent in a wide variety of water-based systems such as latex paints, resin emulsions, joint cement, adhesives, dispersed pigments and dyes, and other similar aqueous compositions.

[9] = test system: common forms of bacteria; assay: antimicrobial effectiveness in water-based systems, general statement; conditions: relative to suggested range 0.05% to 0.20%
Text: The two-to-one quaternary ammonium adduct of this invention is useful in the preparation and storage of systems susceptible to deterioration by microorganisms such as the common forms of bacteria. The exact concentration of the adduct during use is dependent upon a number of factors including duration of storage, temperature of storage, etc.

[10] = toxicological comparison with the one-to-one adducts (acute dermal and acute oral LD50); type: in vivo
Text: Additionally, the two-to-one adduct formed from hexamethylenetetramine and 3,4-dichlorobutene-1 according to this invention is less toxic than either the Frank or Wolf one-to-one adducts.
as §1

[11] = water solubility; type: physicochemical

Q: For ClC=CC[N+]12CN3CN(CN(C3)C1)C2, which “Acute Oral LD50” value [1] is on record?
A: 745 mg/kg

Q: What about the “Acute Dermal LD50” value [2] of the same molecule?
A: 540 mg/kg

Q: Which LD50 [3] does the source give for ClCC=CC[N+]12CN3CN(CN(C3)C1)C2 [reference compound] here?
A: 2000 mg/kg

Q: And the LD50 [4]?
A: 1600 mg/kg

Q: Which LD50 [3] does the source give for C(=CC[N+]12CN3CN(CN(C3)C1)C2)C[N+]12CN3CN(CN(C3)C1)C2 [1,1'-(but-2-enylene) bis(3,5,7-triaza-1-azoniaadamantane chloride)] here?
A: 8000 mg/kg

Q: And the “preservation of paint viscosity, stability and performance characteristics” value [5]?
A: maintained the viscosity, stability and performance characteristics of the paint

Q: And the “time for paint samples to return to sterility after inoculation” value ([5]; approximately 10^8 organisms per ml Pseudomonas aeruginosa)?
A: ≤ 24 h

Q: And the “period for which the same degree of preservation was maintained” value ([5]; testing then discontinued)?
A: > 9 months

Q: And the decomposition point [6]?
A: about 130 °C

Q: And the “resistance to bacterial contamination on inoculation with bacterial cultures” value [7]?
A: still resistant to bacterial contamination

Q: And the effectiveness against microorganisms [8]?
A: effective against a broad spectrum of gram positive and gram negative microorganisms

Q: What about the “minimal inhibitory concentrations vis-a-vis the common bacteria” value [9] of the same molecule?
A: much less than this suggested range

Q: And the LD50 [4]?
A: 3400 mg/kg

Q: What about the “toxicity relative to the Frank or Wolf one-to-one adducts” value [10] of the same molecule?
A: less toxic

Q: What about the water solubility [11] of the same molecule?
A: water-soluble
